# In patent publication US10214512B2, “Factor XIA inhibitors” (MERCK SHARP & DOHME CORP., priority 2015, dated 2019):
# Assays:
# [1] = molecular target: purified Human plasma Kallikrein (Homo sapiens (Human), UniProt P03952); experiment: Kallikrein Assay; format: biochemical; settings: purified Human plasma Kallikrein 0.5 nM; substrate Acetyl-K-P-R-AFC; 50 mM HEPES pH 7.4; Ki from IC50 by Cheng Prusoff
# Procedure: (§1) The effectiveness of a compound of the present invention as an inhibitor of Kallikrein can be determined using a relevant purified serine protease, and an appropriate synthetic substrate. The rate of hydrolysis of the chromogenic or fluorogenic substrate by the relevant serine protease was measured both in the absence and presence of compounds of the present invention. Assays were conducted at rt or at 37° C. […] A decrease in the rate of fluorescence change in the presence of inhibitor is indicative of enzyme inhibition. Such methods are known to one skilled in the art. The results of this assay are expressed as the inhibitory constant, Ki.
# Kallikrein determinations were made in 50 mM HEPES buffer at pH 7.4 containing 150 mM NaCl, 5 mM CaCl2, and 0.1% PEG 8000 (polyethylene glycol; Fisher Scientific). Determinations were made using purified Human plasma Kallikrein at a final concentration of 0.5 nM (Enzyme Research Laboratories) and the synthetic substrate, Acetyl-K-P-R-AFC (Sigma # C6608) at a concentration of […].
# Times required to achieve equilibration between enzyme and inhibitor were determined in control experiments. […] IC50 was determined by inflection point from a four parameter logistic curve fit. Ki was calculated using the Cheng Prusoff equation, Ki=IC50/(1+([S]/Km)).
# [2] = molecular target: purified human Factor XIa (Homo sapiens (Human), UniProt P03951); experiment: Factor XIa Assay; format: biochemical; settings: purified human Factor XIa 40 pM; substrate Z-Gly-Pro-Arg-AFC 100 μM; 50 mM HEPES pH 7.4; read-out: Human FXIa Ki
# purified human Factor XIa, sequence (P03951 388-625): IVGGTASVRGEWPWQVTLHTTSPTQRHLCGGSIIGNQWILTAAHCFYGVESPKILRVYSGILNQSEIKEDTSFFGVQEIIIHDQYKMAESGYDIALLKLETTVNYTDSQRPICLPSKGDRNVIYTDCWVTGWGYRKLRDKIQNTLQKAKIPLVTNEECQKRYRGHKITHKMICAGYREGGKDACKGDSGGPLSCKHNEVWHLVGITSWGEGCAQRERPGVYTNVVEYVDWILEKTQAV
# purified human Factor XIa, sequence (P03951 19-387 partner): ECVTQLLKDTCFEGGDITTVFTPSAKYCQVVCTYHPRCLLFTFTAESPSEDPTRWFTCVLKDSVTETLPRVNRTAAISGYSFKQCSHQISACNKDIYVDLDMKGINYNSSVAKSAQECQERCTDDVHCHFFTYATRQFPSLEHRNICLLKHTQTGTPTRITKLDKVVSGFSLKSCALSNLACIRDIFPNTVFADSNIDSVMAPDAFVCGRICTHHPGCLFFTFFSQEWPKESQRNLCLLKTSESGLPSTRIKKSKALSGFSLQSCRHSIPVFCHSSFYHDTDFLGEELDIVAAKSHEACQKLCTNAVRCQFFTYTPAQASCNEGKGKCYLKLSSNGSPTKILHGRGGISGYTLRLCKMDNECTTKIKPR
# Procedure: as §1, with “Coagulation Factor XIa” for “Kallikrein”
# Factor XIa determinations were made in 50 mM HEPES buffer at pH 7.4 containing 150 mM NaCl, 5 mM CaCl2, and 0.1% PEG 8000 (polyethylene glycol; JT Baker or Fisher Scientific). Determinations were made using purified human Factor XIa at a final concentration of 40 pM (Sekisui Diagnostics) and he synthetic substrate, Z-Gly-Pro-Arg-AFC, TFA salt (Sigma #C0980) at a concentration of 100 μM.
# Times required to achieve equilibration between enzyme and inhibitor were determined in control experiments. Initial velocities of product formation in the absence (Vo) or presence of inhibitor (Vi) were measured. Assuming competitive inhibition, and that unity is negligible compared Km/[S], [I]/e, and [I]/e (where [S], [I], and e respectively represent the total concentrations, of substrate, inhibitor and enzyme), the equilibrium constant (Ki) for dissociation of the inhibitor from the enzyme can be obtained from the dependence of Vo/Vi on [I] shown in the following equation.
# purified Human plasma Kallikrein, sequence (P03952 391-638): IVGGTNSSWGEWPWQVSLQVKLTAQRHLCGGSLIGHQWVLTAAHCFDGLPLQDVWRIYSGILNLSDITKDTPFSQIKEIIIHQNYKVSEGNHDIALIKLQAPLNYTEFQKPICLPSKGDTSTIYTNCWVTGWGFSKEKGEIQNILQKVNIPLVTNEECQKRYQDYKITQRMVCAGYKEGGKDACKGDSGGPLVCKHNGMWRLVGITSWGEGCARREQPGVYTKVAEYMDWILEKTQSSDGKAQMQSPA
# purified Human plasma Kallikrein, sequence (P03952 20-390 partner): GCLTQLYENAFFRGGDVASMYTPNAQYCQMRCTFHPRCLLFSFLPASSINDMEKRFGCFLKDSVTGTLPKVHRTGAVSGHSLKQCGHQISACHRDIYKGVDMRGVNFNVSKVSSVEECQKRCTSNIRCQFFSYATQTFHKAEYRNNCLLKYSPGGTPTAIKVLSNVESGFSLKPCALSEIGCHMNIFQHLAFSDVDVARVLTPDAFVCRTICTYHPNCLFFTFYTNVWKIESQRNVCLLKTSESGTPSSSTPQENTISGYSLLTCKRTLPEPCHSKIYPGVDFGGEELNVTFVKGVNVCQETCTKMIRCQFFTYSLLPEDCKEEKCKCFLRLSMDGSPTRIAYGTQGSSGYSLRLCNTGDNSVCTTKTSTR
Ki [1] [nM],Ki [2] [nM],SMILES
29,–,"COC(=O)Nc1ccc2c(c1)NC(=O)CC[C@@H](C)C[C@@H](c1ccc(-c3c(F)ccc(Cl)c3F)c[n+]1[O-])c1nc-2c(C)[nH]1 (single isomer, unassigned) [Example 151-c]"
11.7,–,"COC(=O)Nc1ccc2c(c1)NC(=O)C(C)CCCC(c1ccc(-c3c(F)ccc(Cl)c3F)cn1)c1cc-2ccn1 (single isomer, unassigned) [Example 95-a, Methyl (9-(5-(3-chloro-2,6-difluorophenyl)pyridin-2-yl)-5-methyl-4-oxo-3-aza-1(4,2)-pyridina-2(1,2)-benzenacyclononaphane-2^4-yl)carbamate]"
31.2,–,"COC(=O)Nc1ccc2c(c1)NC(=O)[C@@H](C)CCC[C@@H](c1ccc(-c3c(OC(F)F)ccc(F)c3F)c[n+]1[O-])c1nc-2c(C)[nH]1 (single isomer, unassigned) [Example 150-b]"
0.24,–,"COC(=O)Nc1ccc2c(c1)NC(=O)C(C)CCCC(c1ccc(-c3c(F)ccc(Cl)c3F)c[n+]1[O-])c1nc-2c[nH]1 (single isomer, unassigned) [Example 114-a, (Z)-5-(3-chloro-2,6-difluorophenyl)-2-(2^4-((methoxycarbonyl)amino)-5-methyl-4-oxo-1^1H-3-aza-1(4,2)-imidazola-2(1,2) -benzenacyclononaphane-9-yl)pyridine 1-oxide]"
0.51,–,"COC(=O)Nc1ccc2c(c1)NC(=O)[C@H](C)CCC[C@H](c1ccc(-c3c(OC(F)F)ccc(F)c3F)c[n+]1[O-])c1nc-2c(C)[nH]1 (single isomer, unassigned) [Example 150-a]"
7.71,–,"COC(=O)Nc1ccc2c(c1)NC(=O)[C@@H](C)CCC[C@H](c1ccc(-c3cc(F)ccc3OC(F)(F)F)c[n+]1[O-])c1nc-2c(C)[nH]1 (single isomer, unassigned) [Example 149-c]"
10.8,–,"COC(=O)Nc1ccc2c(c1)NC(=O)CC[C@H](C)C[C@H](c1ccc(-c3c(F)ccc(Cl)c3F)c[n+]1[O-])c1nc-2c(C)[nH]1 (single isomer, unassigned) [Example 151-b]"
1.92,–,"COC(=O)Nc1ccc2c(c1)NC(=O)CCCCC(c1ccc(-c3c(F)ccc(Cl)c3F)c[n+]1[O-])c1ccnc-2c1 (single isomer, unassigned) [Example 93-a, 5-(3-Chloro-2,6-difluorophenyl)-2-(2^4-((methoxycarbonyl)amino)-4-oxo-3-aza-1 (2,4)-pyridina-2(1,2)-benzenacyclononaphane-9-yl)pyridine 1-oxide]"
2.67,–,"COC(=O)Nc1ccc2c(c1)NC(=O)C(C)CCCC(c1cc(OC)c(-c3c(F)ccc(Cl)c3F)c[n+]1[O-])c1cccc-2c1 (single isomer, unassigned) [Example 88-b, 5-(3-Chloro-2,6-difluorophenyl)-4-methoxy-2-(2^4-((methoxycarbonyl)amino)-5-methyl-4-oxo-3-aza-1(1,3),2(1,2) -dibenzenacyclononaphane-9-yl)pyridine 1-oxide]"
5.21,–,"COC(=O)Nc1ccc2c(c1)NC(=O)C(C)CCCC(c1cc(OC)c(-c3c(F)ccc(Cl)c3F)c[n+]1[O-])c1cccc-2c1 (single isomer, unassigned) [Example 88-d, 5-(3-Chloro-2,6-difluorophenyl)-4-methoxy-2-(2^4-((methoxycarbonyl)amino)-5-methyl-4-oxo-3-aza-1(1,3),2(1,2) -dibenzenacyclononaphane-9-yl)pyridine 1-oxide]"
10.8,–,"COC(=O)Nc1ccc2c(c1)NC(=O)C(C)CCCC(c1ccc(-c3c(F)ccc(Cl)c3F)cn1)c1cc-2ccn1 (single isomer, unassigned) [Example 95-d, Methyl (9-(5-(3-chloro-2,6-difluorophenyl)pyridin-2-yl)-5-methyl-4-oxo-3-aza-1(4,2)-pyridina-2(1,2)-benzenacyclononaphane-2^4-yl)carbamate]"
0.71,–,"CCc1[nH]c2nc1-c1ccc(NC(=O)OC)cc1NC(=O)[C@H](C)CCC[C@@H]2c1ccc(-c2c(F)cccc2OC(F)F)c[n+]1[O-] (single isomer, unassigned) [Example 146-a]"
0.3,–,"COC(=O)Nc1ccc2c(c1)NC(=O)[C@H](C)CCC[C@H](c1ccc(-c3c(F)cccc3F)c[n+]1[O-])c1nc-2c(C2CC2)[nH]1 (single isomer, unassigned) [Example 145-a]"
3.46,–,"CCc1[nH]c2nc1-c1ccc(NC(=O)OC)cc1NC(=O)[C@@H](C)CCC[C@@H]2c1ccc(-c2c(F)cccc2OC(F)F)c[n+]1[O-] (single isomer, unassigned) [Example 146-c]"

# The next lines start with the molecule.
SMILES,Ki [1] [nM],Ki [2] [nM]
"COC(=O)Nc1ccc2c(c1)NC(=O)CCCC[C@H](c1ccc(-c3c(C(F)F)ccc(Cl)c3F)c[n+]1[O-])c1nc-2c(C)[nH]1 (single isomer, unassigned) [Example 124]",0.73,0.2
"CC1CCCC(c2ccc(-c3cc(Cl)ccc3-n3cnnn3)c[n+]2[O-])c2cccc(c2)-c2ccc(C#N)cc2NC1=O (centres unmarked) [Example 84, 5-(5-chloro-2-(1H-tetrazol-1-yl)phenyl)-2-(2^4-cyano-5-Methyl-4-OXO-3-aza-1(1,3), 2(1,2)-dinenzenacyclononaphane-9-yl)pyridine 1-oxide]",1.85,0.38
"COC(=O)Nc1ccc2c(c1)NC(=O)CCCC[C@H](c1ccc(-c3c(F)ccc(Cl)c3F)c[n+]1[O-])c1cc(F)c(F)c-2c1 (single isomer, unassigned) [Example 69]",6.79,1.87
"COC(=O)Nc1ccc2c(c1)NC(=O)C(C)(C)CCC[C@H](c1ccc(-c3c(F)cccc3OC(F)F)c[n+]1[O-])c1nc-2c(C)[nH]1 (single isomer, unassigned) [Example 147]",3.08,0.22
"COC(=O)Nc1ccc2c(c1)NC(=O)[C@H](C)CCC[C@H](c1ccc(-c3cc(F)ccc3OC(F)(F)F)c[n+]1[O-])c1nc-2c(C)[nH]1 (single isomer, unassigned) [Example 149-a]",2.02,–
"C[C@H]1CCC[C@@H](c2ccc(-c3cc(Cl)ccc3-n3cc(C(F)(F)F)cn3)c[n+]2[O-])c2cccc(c2)-c2c(cnn2C(F)F)NC1=O (single isomer, unassigned) [Example 168-d]",161,–
"COC(=O)Nc1ccc2c(c1)NC(=O)[C@@H](C)CCC[C@H](c1ccc(-c3cc(Cl)ccc3OC(F)(F)F)c[n+]1[O-])c1cccc-2c1 (single isomer, unassigned) [Example 77-b]",17.3,–
"COC(=O)Nc1ccc2c(c1)NC(=O)CCCC[C@H](c1ccc(-c3c(F)cccc3OC(F)F)c[n+]1[O-])c1cccc-2c1 (single isomer, unassigned) [Example 34]",5.01,–
"COC(=O)Nc1ccc2c(c1)NC(=O)CC[C@@H](C)C[C@H](c1ccc(-c3c(F)cccc3OC(F)F)c[n+]1[O-])c1nc-2c(C)[nH]1 (single isomer, unassigned) [Example 152-a]",2.76,–
"COC(=O)Nc1ccc2c(c1)NC(=O)CCCC[C@H](c1ccc(-c3c(F)cccc3-n3cc(C(F)(F)F)cn3)c[n+]1[O-])c1nc-2c(C)[nH]1 (single isomer, unassigned) [Example 137]",418,–
"COC(=O)Nc1ccc2c(c1)NC(=O)CC[C@H](C)C[C@H](c1ccc(-c3c(F)cccc3OC(F)F)c[n+]1[O-])c1nc-2c(C)[nH]1 (single isomer, unassigned) [Example 152-b]",114,–
"COC(=O)Nc1ccc2c(c1)NC(=O)CCCCC(c1ccc(-c3c(F)cccc3OC(F)(F)F)c[n+]1[O-])c1nc-2c(C)[nH]1 (single isomer, unassigned) [Example 131]",5.32,–
"COC(=O)Nc1ccc2c(c1)NC(=O)CCCCC(c1ccc(-c3cc(Cl)ccc3-n3cc(C(=O)O)nn3)cn1)c1cccc-2c1 (single isomer, unassigned) [Example 92-a, 1-(4-chloro-2-(6-(2^4-((methoxycarbonyl)amino)-4-oxo-3-aza-1(1,3),2(1,2) -dinenzenacyclononaphane-9-yl)pyridin-3-yl)phenyl)-1H-1,2,3-triazole-4-carboxylic acid]",26,–
"COC(=O)Nc1ccc2c(c1)NC(=O)CCCC[C@H](c1ccc(-c3cc(Cl)ccc3-n3cnnn3)c[n+]1[O-])c1cc-2ncc1F (single isomer, unassigned) [Example 71]",0.33,–
